Patent publication US6486151B2, “N-oxides of heterocyclic esters, amides, thioesters, and ketones” (GPI NIL Holdings Inc., priority 1997, dated 2002)

Legend:
[1] = Liver microsomal assay (model of first pass metabolism); format: in vitro ADME, mouse
Procedure: (§1) In studies to directly asses the rate of metabolism of N-oxides, a mouse liver microsomal assay was used as described below to model first pass metabolism.
Liver microsomes from various species were purchased from a commercial supplier. The microsomes are characterized prior to shipment. The reaction mixture contained microsomes, 5 μM MgCl2, 1 mM NADP, 4 mM glucose-6-phosphate (G-6-P), and 1 unit/4 mL glucose-6-phosphate dehydrogenase (G-6-P DH). The final microsomal protein concentration for all studies was 0.2 mg/mL. Incubations were carried out for 1 hour in a shaking water bath (37° C.). The reaction was terminated by removing an aliquot from the reaction mixture and placing it in a tube with an equal volume of acetonitrile and the bioanalytical internal standard. The results of these experiments are presented as compound half-lives (t1/2) in Table II.

[2] = system: rabbit liver esterase; assay: Esterase activity: degradation by purified rabbit liver esterase; format: in vitro ADME; settings: for de-esterification by purified esterase (in words): purified esterification enzyme in vitro; for esterase degradation (rate of enzymatic degradation): purified rabbit liver esterase, 0.05 M Tris buffer pH 7.5, 2 hours
Procedure: as §1
Purified rabbit liver esterase was purchased from Sigma. Five (5) units of enzyme were placed in 2 mL of 0.05 M Tris buffer (pH 7.5). Incubations were performed for 2 hours. The reaction was terminated by removing an aliquot from the reaction mixture and placing it in a tube with an equal volume of acetonitrile and the bioanalytical internal standard. The results of these experiments are presented in Table II as rates of enzymatic degradation of the compounds.

[3] = target: FKBP12 (Homo sapiens, UniProt P62942); assay: Ki test procedure: inhibition of peptidyl-prolyl isomerase (rotamase) activity, chymotrypsin-coupled assay; format: biochemical; settings: FKBP, substrate N-succinyl-Ala-Ala-Pro-Phe-p-nitroanilide; read-out: Ki (apparent Ki, rotamase inhibition)
From the text: As discussed above, the compounds of the present invention have an affinity for the FK506 binding protein, particularly FKBP12. The inhibition of the prolyl peptidyl cis-trans isomerase activity of FKBP may be measured as an indicator of this affinity.
Inhibition of the peptidyl-prolyl isomerase (rotamase) activity of the inventive compounds can be evaluated by known methods described in the literature (Harding, et al., Nature, 1989, 341 :758-760; Holt et al. J. Am. Chem. Soc., 115:9923-91938). The cis-trans isomerization of an alanine-proline bond in a model substrate, N-succinyl-Ala-Ala-Pro-Phe-p-nitroanilide, is monitored spectrophotometrically in a chymotrypsin-coupled assay, which releases para-nitroanilide from the trans form of the substrate. The inhibition of this reaction caused by the addition of different concentrations of inhibitor is determined, and the data is analyzed as a change in first-order rate constant as a function of inhibitor concentration to yield the apparent Ki values. […]
The absorbance at 390 nm versus time is monitored for 90 seconds using a spectrophotometer and the rate constants are determined from the absorbance versus time data files. […]

[4] = system: MPTP lesioning of dopaminergic neurons in mice; assay: MPTP model of Parkinson's Disease: striatal TH innervation density; format: in vivo; settings: MPTP 30 mg/kg i.p. 5 days, test compound 4 mg/kg s.c., FIG. 1
Procedure: FIG. 1 is a bar graph showing Protection of Striatal TH Innervation Density from MPTP-toxicity by Concurrent Drug Dosing.
MPTP lesioning of dopaminergic neurons in mice is used as an animal model of Parkinson's Disease. Four week old male CD1 white mice are dosed i.p. with 30 mg/kg of MPTP for 5 days. Test compounds (4 mg/kg), or vehicle, are administered s.c. along with the MPTP for 5 days, as well as for an additional five days following cessation of MPTP treatment. At 18 days following MPTP treatment, the animals are sacrificed and the striata dissected and perfusion-fixed. Immunostaining is performed on sagittal and coronal brain sections using anti-tyrosine hydroxylase […] to quantitative survival and recovery of dopaminergic neurons. In animals treated MPTP and vehicle, a substantial loss of functional dopaminergic terminals is observed as compared to non-lesioned animals. Lesioned animals receiving test compounds show a significant recovery of TH-stained dopaminergic neurons. This model presents quantitation for the recovery of TH-positive dopaminergic neurons in the striatum of animals receiving of animals receiving the compounds of the present invention. Data for representative control and lesioned animals not receiving the test drugs is also presented against the data from the animals receiving the compounds of the present invention. […]

[5] = system: chick dorsal root ganglia; assay: Chick dorsal root ganglion cultures and neurite growth; format: cell-based; settings: Gallus gallus; chick embryo DRG explants, 48 hours after drug treatment; read-out: ED50 (neurite outgrowth)
Procedure: Dorsal root ganglia were dissected from chick embryos of ten day gestation. Whole ganglion explants were cultured on thin layer Matrigel-coated 12 well plates with Liebovitz L15 plus high glucose media supplemented with 2 mM glutamine and 10% fetal calf serum, and also containing 10 μM cytosine β-D arabinofuranoside (Ara C) at 37° C. in an environment containing 5% CO2. Twenty-four hours later, […] Forty-eight hours after drug treatment, the ganglia were visualized under phase contrast or Hoffman Modulation contrast with a Zeiss Axiovert inverted microscope. Photomicrographs of the explants were made, and neurite outgrowth was quantified. Neurites longer than the DRG diameter were counted as positive, with total number of neurites quantitated per each experimental condition. Three to four DRGs are cultured per well, and each treatment was performed in duplicate.

Chain of FKBP12 (P62942 whole entry): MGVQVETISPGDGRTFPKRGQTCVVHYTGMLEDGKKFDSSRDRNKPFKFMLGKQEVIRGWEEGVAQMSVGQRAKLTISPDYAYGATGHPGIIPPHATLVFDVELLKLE

Compound	half-life compared with parent compound (in words) ([1]; mouse liver microsomal assay)	t1/2 (compound half-life in microsomal assay) ([1]; mouse liver microsomes, 0.2 mg/mL protein, 37° C., 1 hour incubation) [min]	de-esterification by purified esterase (in words) [2]	esterase degradation (rate of enzymatic degradation) [2] [pmol/min/mg protein]	Ki [3] [nM]	protection / recovery of striatal TH-positive dopaminergic innervation (in words) [4]	half-life ([1]; mouse liver microsomes, 0.2 mg/mL protein, 37° C., 1 hour incubation, read-out: t1/2 (compound half-life in microsomal assay)) [min]	EC50 [5] [nM]
CCC(C)(C)C(=O)C(=O)N1CCC[C@H]1C(=O)OCCCc1ccc[n+]([O-])c1 [Example 1, 3-(3-Pyridyl)-1-propyl (2S)-1-(3,3-Dimethyl-1,2-dioxopentyl) -2-pyrrolidinecarboxylate, N-oxide]	significantly longer half-life than the parent compound	42.8	limited de-esterification	367	225	more potent in this in vivo model of neurodegeneration		
CCC(C)(C)C(=O)C(=O)N1CCC[C@H]1C(=O)OCCCc1cccnc1 [Parent, 3-(3-Pyridyl)-1-propyl (2S)-1-(3,3-Dimethyl-1,2-dioxopentyl)-2-pyrrolidinecarboxylate, reference compound]			significant degradation	7521			8.1	0.05
